Several values for one entry are separate records, joined by “and”; a condition that tells them apart may be missing. Equal values may be shown once. After the bases stand the sugars from the 5' end (letter, count) and the backbone: PS all phosphorothioate, else s phosphorothioate and o phosphodiester by linkage. Methylation of C is not given here. e = 2'-O-(2-methoxyethyl) (MOE); k = constrained ethyl (cEt); d = 2'-deoxy (DNA)

In this data set the target is IRF4. The note with it: ASO.

CACTGAACCATGTTCC (sugars k3 d10 k3, PS): where the note is “SK-MEL-28, 4 µM”, the target mRNA inhibition worked out at 61%. ATTAAAGAGCGCATTT (sugars k3 d10 k3, PS): for the setting “SK-MEL-28, 4 µM”, the target mRNA inhibition was 13%. For the sequence ACCTTCGCGGCCGGCC (sugars k3 d10 k3, PS), the target mRNA inhibition (MM.1R, 1 µM) was -42%. GCCATTGTCCTCTGGG (sugars k3 d10 k3, PS): the target mRNA inhibition (SK-MEL-28, 4 µM) stood at 25%.

Regarding GAACAAGTGTATCTTT (sugars k3 d10 k3, PS), the target mRNA inhibition (MM.1R, 1 µM) worked out at 5%.

Consider GACTCCATGAGGTTTT (sugars k3 d10 k3, PS), for which the target mRNA inhibition reads like this: (SK-MEL-28, 0.185 µM) 14% and 10% and 1%; (SK-MEL-28, 4 µM) 70%; (SK-MEL-28, 5 µM) 58% and 55% and 77%; (SK-MEL-28, 15 µM) 76% and 78% and 87%.

With GGCTCCGCTCAACCAG (sugars k3 d10 k3, PS), the target mRNA inhibition (MM.1R, 1 µM) is 9%.

For CCAAGTAATTTTAAGG (sugars k3 d10 k3, PS), the target mRNA inhibition (SK-MEL-28, 4 µM) was determined as 34%. Still for that read-out and setting: the figure for AGATTAATAGTAAGTT (sugars k3 d10 k3, PS) is 4%. Regarding “ACTGCTTGAGGTTTTC (sugars kkdddddddddkdkdk, PS)”, the target mRNA inhibition (MM.1R, 1 µM) was 19%.

For CAAAGCATAGAGTCAC (sugars k3 d10 k3, PS), the target mRNA inhibition (SK-MEL-28, 4 µM) came out at 36%. On to GCATTTTCCAGAAAAT (sugars k3 d10 k3, PS), for which the target mRNA inhibition runs as follows: (SK-MEL-28, 0.185 µM) 13%; (SK-MEL-28, 4 µM) 64%; (SK-MEL-28, 5 µM) 74%; (SK-MEL-28, 15 µM) 89%. On to CTTATTAGACTGACAG (sugars k3 d10 k3, PS), for which, for the setting “SK-MEL-28, 4 µM”, the target mRNA inhibition is 41%. “TCTATAGTGTTCCAGG (sugars k2 d9 e3 k2, PS)”: where the note is “MM.1R, 1 µM”, the target mRNA inhibition is 50%.

GTTCAAAGCGCACCGC (sugars k3 d10 k3, PS): for the setting “SK-MEL-28, 4 µM”, the target mRNA inhibition was 65%. The same measure, in the same setting: under GTAATGTAGGGATACA (sugars k3 d10 k3, PS) stands 48%. With ATTCAGGAGAGCCCCT (sugars k3 d10 k3, PS), the target mRNA inhibition (MM.1R, 1 µM) is -15%.

Take GTGAAAACACTCATGG (sugars k3 d10 k3, PS): the target mRNA inhibition (SK-MEL-28, 4 µM) is 60%. Still for that read-out and setting: under TCAGTTTGTGAAGCAT (sugars k3 d10 k3, PS) stands 75% and 89%; under CTCCATTCAAGCCAGT (sugars k3 d10 k3, PS), 58%; under GCTCATGGACATCTGC (sugars k3 d10 k3, PS), 39%.

In the case of TCTAACAGATAACGAG (sugars k3 d10 k3, PS), the target mRNA inhibition (MM.1R, 1 µM) is -3%. Same read-out and setting: under CCTGAAAAGAGCCGCC (sugars k3 d10 k3, PS) stands -3%. Consider CCCACACCAGCCCGGG (sugars k4 d8 k4, PS), for which the target mRNA inhibition (SK-MEL-28, 4 µM) is -6%. Still for that read-out and setting: under CTGTAACAGGCTATCA (sugars k3 d10 k3, PS) stands 44%. Still for that read-out and setting: the figure for TGTATTTATGCCCTCG (sugars k3 d10 k3, PS) is 44%. “GACACTTTTAGAGAGG (sugars k2 d9 e3 k2, PS)”: the target mRNA inhibition (MM.1R, 1 µM) worked out at 25%.

Take “TGGGATTATATACTGG (sugars kkdddddddddkekek, PS)”: under “MM.1R, 1 µM”, the target mRNA inhibition came to 42%. In the case of TGCCACAACTCTCGCC (sugars k3 d10 k3, PS), for the setting “SK-MEL-28, 4 µM”, the target mRNA inhibition stood at 31%. In the case of “AGTATGAGAAACGGCC (sugars k2 d9 e3 k2, PS)”, where the note is “MM.1R, 1 µM”, the target mRNA inhibition came out at 16%. Regarding GGCGACTAACTCTCCT (sugars k3 d10 k3, PS), the target mRNA inhibition (SK-MEL-28, 4 µM) worked out at 63%. Take GCTGTGTGTCAAAGAG (sugars k4 d8 k4, PS): where the note is “SK-MEL-28, 4 µM”, the target mRNA inhibition is 40%.

With “GGCACATCAATGTTTT (sugars kkddddddddddkeke, PS)”, the target mRNA inhibition (MM.1R, 1 µM) stood at 9%. For the sequence CTCACGAGCACCTCAG (sugars k3 d10 k3, PS), the target mRNA inhibition (SK-MEL-28, 4 µM) came to 42%. On the same count and under the same terms, the figure for CCCCAAAATACTTTGC (sugars k3 d10 k3, PS) is 100%; for AAAATATCGCCCATGA (sugars k3 d10 k3, PS) it is 41%.

For the sequence GTTGTACAGGACAGGT (sugars k3 d10 k3, PS), the target mRNA inhibition (MM.1R, 1 µM) came out at 33%.

For TCTGAGATGTCCAGCT (sugars k3 d10 k3, PS), the target mRNA inhibition (SK-MEL-28, 4 µM) stood at 45%. Same read-out and setting: under TTGCATCTATAAGATG (sugars k3 d10 k3, PS) stands 31%; under GATAAAGGCTGAACTG (sugars k3 d10 k3, PS), 67%.

In the case of “ACAGTGACTTGCATCC (sugars kdddddddddkekeke, PS)”, the target mRNA inhibition (MM.1R, 1 µM) came to 6%. On to CCACAACTGCAGTTTG (sugars k3 d10 k3, PS), for which, for the setting “SK-MEL-28, 4 µM”, the target mRNA inhibition amounted to 23%. The same measure, in the same setting: the figure for CAGAATGAAGTTAAGG (sugars k3 d10 k3, PS) is 50%. As for “CTGCTTGAGGTTTTCC (sugars kkdddddddddkekek, PS)”, the target mRNA inhibition (MM.1R, 1 µM) worked out at 30%.

As to TTAAAGGGTAAGCACT (sugars k3 d10 k3, PS), under “MM.1R, 1 µM”, the target mRNA inhibition was -18%.

In the case of AAAGAGCGCATTTCAG (sugars k3 d10 k3, PS), the target mRNA inhibition (SK-MEL-28, 4 µM) came out at 6%. “TACTGTTACCGATGCT (sugars kkdddddddddkekek, PS)”: the target mRNA inhibition (MM.1R, 1 µM) is 9% and 27%.

Turning to AGCGAAGGGTAAGGCG (sugars k3 d10 k3, PS), the target mRNA inhibition (SK-MEL-28, 4 µM) worked out at 14%. Same read-out and setting: under CATTCCCTAGGTCATA (sugars k3 d10 k3, PS) stands 54%; under TAGAAGCCCACAAGAA (sugars k3 d10 k3, PS), 1%. As for TCCTGTAACGCACCCG (sugars k3 d10 k3, PS), the target mRNA inhibition (MM.1R, 1 µM) was -13%. ATAATATAGTTGTCTG (sugars k3 d10 k3, PS): the target mRNA inhibition (SK-MEL-28, 4 µM) stood at 35%. CAGAGTTGTTCCACCC (sugars k3 d10 k3, PS): the target mRNA inhibition (SK-MEL-28, 4 µM) is 62%. The same measure, in the same setting: under GACTCGGAGCTGAGGG (sugars k3 d10 k3, PS) stands 23%. On to TCACTACCTGCAGCCA (sugars k3 d10 k3, PS), for which the target mRNA inhibition (MM.1R, 1 µM) came to 6%.

For the sequence GTTGGCTGGTCTTTGT (sugars k3 d10 k3, PS), the target mRNA inhibition (MM.1R, 1 µM) worked out at 63%. For AGCATTATCTACCTCA (sugars k3 d10 k3, PS), the target mRNA inhibition (SK-MEL-28, 4 µM) was 78%. For the sequence AGGAAACTTGGAGCGC (sugars k3 d10 k3, PS), the target mRNA inhibition (MM.1R, 0.0625 µM) was -1%; the target mRNA inhibition (MM.1R, 0.25 µM) came to 2%; the target mRNA inhibition (MM.1R, 1 µM) turned out to be 15%; the target mRNA inhibition (MM.1R, 4 µM) turned out to be 42%; the target mRNA inhibition (SK-MEL-28, 4 µM) was 77%. Turning to AGTGATAGGTATACTT (sugars k3 d10 k3, PS), the target mRNA inhibition (SK-MEL-28, 4 µM) was found to be 39%. In the case of AGAGACCATGTTCAGA (sugars k3 d10 k3, PS), the target mRNA inhibition (MM.1R, 1 µM) was 12%. For the sequence “CAGTTGTAAATGAGTC (sugars k2 d9 e3 k2, PS)”, the target mRNA inhibition by setting is: (H929, 0.00067 µM) 26%; (H929, 0.002 µM) 46%; (H929, 0.00667 µM) 64%; (H929, 0.02 µM) 72%; (H929, 0.04 µM) 50%; (KMS11, 0.2 µM) 83% and 91%. Further, the target mRNA inhibition turned out to be 10% (MM.1R, 0.074 µM); 28% (MM.1R, 0.222 µM); 52% (MM.1R, 0.666 µM); 62% (MM.1R, 1 µM); 77% (MM.1R, 2 µM). Consider GAGACCTACAAAATGC (sugars k3 d10 k3, PS), for which the target mRNA inhibition (SK-MEL-28, 4 µM) stood at 11%. The same measure, in the same setting: the figure for TAGTCGACAGCTAAAG (sugars k3 d10 k3, PS) is 46%. Regarding “CAGTGATGTCAGGTTT (sugars kkdddddddddkdkdk, PS)”, the target mRNA inhibition by setting is: (MM.1R, 0.074 µM) 5%; (MM.1R, 0.222 µM) 23%; (MM.1R, 0.666 µM) 40%; (MM.1R, 1 µM) 47%; (MM.1R, 2 µM) 67%. ACATGGCAGTGGAGCT (sugars k3 d10 k3, PS): the target mRNA inhibition (SK-MEL-28, 4 µM) was found to be 64%. Take “GAAGTTTACACTGGAT (sugars kkdddddddddekeke, PS)”: the target mRNA inhibition stood at 14% (MM.1R, 0.074 µM); 26% (MM.1R, 0.222 µM); 50% (MM.1R, 0.666 µM); 58% (MM.1R, 1 µM); 59% (MM.1R, 2 µM). Take GAAGGCCTGAGTTACC (sugars k3 d10 k3, PS): the target mRNA inhibition (MM.1R, 1 µM) stood at 29%.

As to CTCACTGCTCACTAAG (sugars k3 d10 k3, PS), the target mRNA inhibition (SK-MEL-28, 4 µM) stood at 64%. Regarding “CAGTGATGTCAGGTTT (sugars kdddddddddkekeke, PS)”, where the note is “MM.1R, 1 µM”, the target mRNA inhibition is 48%. The same measure, in the same setting: under TGTTAGGTGACCCAAA (sugars k3 d10 k3, PS) stands 2%. Take ACTCCATGAGGTTTTC (sugars k3 d10 k3, PS): the target mRNA inhibition (SK-MEL-28, 4 µM) came out at 73%. On the same count and under the same terms, under TGGGAGTAATAGTAAA (sugars k3 d10 k3, PS) stands 16%.

CTGGATTGCTGATGTG (sugars k3 d10 k3, PS): the target mRNA inhibition runs as follows: (MM.1R, 1 µM) 56% and 36%; (MM.1R, 4 µM) 83% and 71%.

For the sequence GGCAAATTAATGCTTC (sugars k3 d10 k3, PS), the target mRNA inhibition is -5% and 17% (MM.1R, 0.0625 µM); -9% (MM.1R, 0.074 µM); -33% (MM.1R, 0.222 µM); -11% and 5% (MM.1R, 0.25 µM); 7% (MM.1R, 0.666 µM); -5% (MM.1R, 2 µM). Further, the target mRNA inhibition (SK-MEL-28, 4 µM) is 76%.

Regarding AGGGACCGCGCCAGGC (sugars k3 d10 k3, PS), for the setting “MM.1R, 1 µM”, the target mRNA inhibition was 0%. Regarding AGCTCATCTGCCAATC (sugars k3 d10 k3, PS), the target mRNA inhibition (SK-MEL-28, 4 µM) was 33%. For CAAGAAGGATGGGACC (sugars k3 d10 k3, PS), the target mRNA inhibition (SK-MEL-28, 4 µM) was 25%.

For the sequence GGTATTTATAACCGGT (sugars k3 d10 k3, PS), the target mRNA inhibition (MM.1R, 1 µM) was found to be 10%.

The values are drawn from the OligoGym collection.
